Laboratory results from PubChem BioAssay AID1259407 (Chemical Carcinogenesis Research Information System (CCRIS), 2018).
Calls of active or inactive are those of the source. How the calls were made is not given here.

Test system: CCRIS mutagenicity, Ames/micronucleus/aberration tests
Test: CCRIS mutagenicity studies
[1] = Test System: AMES SALMONELLA TYPHIMURIUM, Strain/Indicator: TA98, Metabolic Activation: NONE, Method: STANDARD PLATE
[2] = Test System: AMES SALMONELLA TYPHIMURIUM, Strain/Indicator: TA98, Metabolic Activation: RAT, LIVER, S-9, AROCLOR 1254, Method: STANDARD PLATE
[3] = Test System: AMES SALMONELLA TYPHIMURIUM, Strain/Indicator: TA100, Metabolic Activation: NONE, Method: STANDARD PLATE
[4] = Test System: AMES SALMONELLA TYPHIMURIUM, Strain/Indicator: TA100, Metabolic Activation: RAT, LIVER, S-9, AROCLOR 1254, Method: STANDARD PLATE
[5] = Test System: MOUSE LYMPHOMA, Strain/Indicator: L5178Y (TK+/TK-), Metabolic Activation: NONE, Method: SUSPENSION/PLATE
[6] = Test System: MOUSE LYMPHOMA, Strain/Indicator: L5178Y (TK+/TK-), Metabolic Activation: RAT, LIVER, S-9, AROCLOR 1254, Method: SUSPENSION/PLATE
[7] = Test System: Mouse lymphoma, Strain/Indicator: L5178Y (tk+/tk-), Metabolic Activation: None, Method: Suspension/plate
[8] = Test System: Mouse lymphoma, Strain/Indicator: L5178Y (tk+/tk-), Metabolic Activation: Rat, Liver, S-9, Aroclor 1254, Method: Suspension/plate
[9] = Test System: AMES SALMONELLA TYPHIMURIUM, Strain/Indicator: TA1535, Metabolic Activation: NONE, Method: STANDARD PLATE
[10] = Test System: AMES SALMONELLA TYPHIMURIUM, Strain/Indicator: TA1535, Metabolic Activation: RAT, LIVER, S-9, AROCLOR 1254, Method: STANDARD PLATE
[11] = Test System: AMES SALMONELLA TYPHIMURIUM, Strain/Indicator: TA1537, Metabolic Activation: NONE, Method: STANDARD PLATE
[12] = Test System: AMES SALMONELLA TYPHIMURIUM, Strain/Indicator: TA1537, Metabolic Activation: RAT, LIVER, S-9, AROCLOR 1254, Method: STANDARD PLATE

Structure (SMILES): C=Cc1c(C)c2[n-]c1=CC1=NC(=CC3=C(C)C(=C([O-])[O-])C(=N3)C(CC(=O)[O-])=C3N=C(C=2)C(C)C3CCC(=O)[O-])C(CC)=C1C.[Cu+2].[Na+].[Na+].[Na+] (stereo unspecified)
- mutagenic call (Test System: AMES SALMONELLA TYPHIMURIUM, Strain/Indicator: TA97, Metabolic Activation: NONE, Method: PREINCUBATION): inactive; negative
- mutagenic call (Test System: AMES SALMONELLA TYPHIMURIUM, Strain/Indicator: TA97, Metabolic Activation: S-9, Method: PREINCUBATION): inactive; negative
- mutagenic call (Test System: AMES SALMONELLA TYPHIMURIUM, Strain/Indicator: TA102, Metabolic Activation: NONE, Method: PREINCUBATION): inactive; negative
- mutagenic call (Test System: AMES SALMONELLA TYPHIMURIUM, Strain/Indicator: TA102, Metabolic Activation: S-9, Method: PREINCUBATION): inactive; negative
- mutagenic call (Test System: CHINESE HAMSTER OVARY, Strain/Indicator: CHO-K1 (HGPRT)/6-THIOGUANINE): inactive; negative

Structure (SMILES): CC/C=C/C=C/C=C/C=C/C=C/OC[C@@H](O)CO
- mutagenic call [1]: active; positive
- mutagenic call (Test System: AMES SALMONELLA TYPHIMURIUM, Strain/Indicator: TA98, Metabolic Activation: NONE, Method: STANDARD PLATE (AEROBIC)): inactive; negative
- mutagenic call (Test System: AMES SALMONELLA TYPHIMURIUM, Strain/Indicator: TA98, Metabolic Activation: NONE, Method: STANDARD PLATE (ANAEROBIC)): active; positive
- mutagenic call [2]: inactive; negative
- mutagenic call (Test System: AMES SALMONELLA TYPHIMURIUM, Strain/Indicator: TA100, Metabolic Activation: NONE, Method: FLUCTUATION TEST (AEROBIC)): active; positive
- mutagenic call (Test System: AMES SALMONELLA TYPHIMURIUM, Strain/Indicator: TA100, Metabolic Activation: NONE, Method: FLUCTUATION TEST (ANAEROBIC)): active; positive
- mutagenic call [3]: active; positive
- mutagenic call (Test System: AMES SALMONELLA TYPHIMURIUM, Strain/Indicator: TA100, Metabolic Activation: NONE, Method: STANDARD PLATE (AEROBIC)): active; positive
- mutagenic call (Test System: AMES SALMONELLA TYPHIMURIUM, Strain/Indicator: TA100, Metabolic Activation: NONE, Method: STANDARD PLATE (ANAEROBIC)): inactive; negative
- mutagenic call (Test System: AMES SALMONELLA TYPHIMURIUM, Strain/Indicator: TA100, Metabolic Activation: RAT, LIVER, S-9, AROCLOR 1254, Method: PREINCUBATION): active; positive
- mutagenic call [4]: active; positive
- mutagenic call (Test System: AMES SALMONELLA TYPHIMURIUM, Strain/Indicator: TA102, Metabolic Activation: NONE, Method: STANDARD PLATE): active; positive
- mutagenic call (Test System: AMES SALMONELLA TYPHIMURIUM, Strain/Indicator: TA104, Metabolic Activation: NONE, Method: STANDARD PLATE): active; positive
- mutagenic call (Test System: AMES SALMONELLA TYPHIMURIUM, Strain/Indicator: TA104, Metabolic Activation: RAT, LIVER, S-9, AROCLOR 1254, Method: STANDARD PLATE): active; positive
- mutagenic call (Test System: E. COLI, Strain/Indicator: WP2 UVRA (PKM101), Metabolic Activation: NONE, Method: STANDARD PLATE (AEROBIC)): active; positive
- mutagenic call (Test System: E. COLI, Strain/Indicator: WP2 UVRA (PKM101), Metabolic Activation: NONE, Method: STANDARD PLATE (ANAEROBIC)): inactive; negative
- mutagenic call [5]: active; positive
- mutagenic call [6]: active; positive
- mutagenic call [7]: active; positive
- mutagenic call [8]: inactive; negative

Structure (SMILES): CCN(CC)c1ccc(N=Nc2ccc([N+](=O)[O-])cc2C#N)cc1
- mutagenic call [1]: active; positive
- mutagenic call [2]: active; positive
- mutagenic call [3]: active; positive
- mutagenic call [4]: active; positive
- mutagenic call [9]: inactive; negative
- mutagenic call [10]: inactive; negative
- mutagenic call [11]: active; positive
- mutagenic call [12]: active; positive
- mutagenic call (Test System: CHINESE HAMSTER OVARY, Strain/Indicator: CHO (HGPRT)/6-THIOGUANINE, Metabolic Activation: NONE): inactive; negative
- mutagenic call (Test System: CHINESE HAMSTER OVARY, Strain/Indicator: CHO (HGPRT)/6-THIOGUANINE, Metabolic Activation: RAT, LIVER, S-9, AROCLOR 1254): inactive; negative
- mutagenic call (Test System: UDS RAT HEPATOCYTES, Strain/Indicator: THY INCORP, Metabolic Activation: NONE, Method: AUTORADIOGRAPHY): inactive; negative

Structure (SMILES): CN(C)c1ccc(/C=C/c2ccc([N+](=O)[O-])cc2)cc1
- mutagenic call (Test System: AMES SALMONELLA TYPHIMURIUM, Strain/Indicator: TA98, Metabolic Activation: HAMSTER, LIVER, S-9, AROCLOR 1254 (10%), Method: STANDARD PLATE): active; positive
- mutagenic call [1]: inactive; negative
- mutagenic call (Test System: AMES SALMONELLA TYPHIMURIUM, Strain/Indicator: TA98, Metabolic Activation: RAT, LIVER, S-9, AROCLOR 1254 (10%), Method: STANDARD PLATE): active; positive
- mutagenic call (Test System: AMES SALMONELLA TYPHIMURIUM, Strain/Indicator: TA100, Metabolic Activation: HAMSTER, LIVER, S-9, AROCLOR 1254 (10%), Method: STANDARD PLATE): active; positive
- mutagenic call [3]: inactive; negative
- mutagenic call (Test System: AMES SALMONELLA TYPHIMURIUM, Strain/Indicator: TA100, Metabolic Activation: RAT, LIVER, S-9, AROCLOR 1254 (10%), Method: STANDARD PLATE): active; positive
- mutagenic call [5]: inactive; negative
- mutagenic call [6]: active; positive. reevaluation of results: positive

Structure (SMILES): Cc1ccc(N)cc1N=[N+]([O-])c1cc(N)ccc1C
- mutagenic call (Test System: AMES SALMONELLA TYPHIMURIUM, Strain/Indicator: TA98, Metabolic Activation: NONE, Method: SUSPENSION/PLATE): inactive; negative
- mutagenic call (Test System: AMES SALMONELLA TYPHIMURIUM, Strain/Indicator: TA98, Metabolic Activation: RAT, LIVER, S-9, PHENOBARBITAL AND 5,6-BENZOFLAVONE, Method: SUSPENSION/PLATE): inactive; negative
- mutagenic call (Test System: AMES SALMONELLA TYPHIMURIUM, Strain/Indicator: TA100, Metabolic Activation: NONE, Method: SUSPENSION/PLATE): inactive; negative
- mutagenic call (Test System: AMES SALMONELLA TYPHIMURIUM, Strain/Indicator: TA100, Metabolic Activation: RAT, LIVER, S-9, PHENOBARBITAL AND 5,6-BENZOFLAVONE, Method: SUSPENSION/PLATE): active; positive

Structure (SMILES): CC(=O)OCN(N=O)c1ccccc1
- mutagenic call (Test System: AMES SALMONELLA TYPHIMURIUM, Strain/Indicator: TA1537, Metabolic Activation: NONE, Method: LIQUID INCUBATION): active; positive

Structure (SMILES): CC(=O)CC(C)(C)O
- mutagenic call (Test System: AMES SALMONELLA TYPHIMURIUM, Strain/Indicator: TA98, Metabolic Activation: HAMSTER, LIVER, S-9, AROCLOR 1254, Method: STANDARD PLATE): inactive; negative
- mutagenic call [1]: inactive; negative
- mutagenic call [2]: inactive; negative
- mutagenic call (Test System: AMES SALMONELLA TYPHIMURIUM, Strain/Indicator: TA100, Metabolic Activation: HAMSTER, LIVER, S-9, AROCLOR 1254, Method: STANDARD PLATE): inactive; negative
- mutagenic call [3]: inactive; negative
- mutagenic call [4]: inactive; negative
- mutagenic call (Test System: AMES SALMONELLA TYPHIMURIUM, Strain/Indicator: TA1535, Metabolic Activation: HAMSTER, LIVER, S-9, AROCLOR 1254, Method: STANDARD PLATE): inactive; negative
- mutagenic call [9]: inactive; negative
- mutagenic call [10]: inactive; negative
- mutagenic call (Test System: AMES SALMONELLA TYPHIMURIUM, Strain/Indicator: TA1537, Metabolic Activation: HAMSTER, LIVER, S-9, AROCLOR 1254, Method: STANDARD PLATE): inactive; negative
- mutagenic call [11]: inactive; negative
- mutagenic call [12]: inactive; negative
- mutagenic call (Test System: AMES SALMONELLA TYPHIMURIUM, Strain/Indicator: TA1538, Metabolic Activation: HAMSTER, LIVER, S-9, AROCLOR 1254, Method: STANDARD PLATE): inactive; negative
- mutagenic call (Test System: AMES SALMONELLA TYPHIMURIUM, Strain/Indicator: TA1538, Metabolic Activation: NONE, Method: STANDARD PLATE): inactive; negative
- mutagenic call (Test System: AMES SALMONELLA TYPHIMURIUM, Strain/Indicator: TA1538, Metabolic Activation: RAT, LIVER, S-9, AROCLOR 1254, Method: STANDARD PLATE): inactive; negative
- mutagenic call [7]: inactive; negative
- mutagenic call [8]: inactive; negative
